From publication PMC9095466 (Nature, 2022)
Values joined by “and” are separate entries in the source; they are usually repeats but may differ in a detail not shown here. Equal values may be shown once. Read-outs that look alike come from different tables or passages of the source.

Key:
human TMPRSS2 = human TMPRSS2 (Homo sapiens, UniProt O15393); experiment: cell-based; conditions: for TMPRSS2 relative activity: technical duplicates; for inhibition at 0.01 µM: Vero C1008, 10 nM compound, 24 h, vs untreated/vehicle TMPRSS2-expressing Vero E6 cells, read-out: inhibition of TMPRSS2 activity (reduction of substrate proteolysis)
Chain of human TMPRSS2 (O15393 whole entry): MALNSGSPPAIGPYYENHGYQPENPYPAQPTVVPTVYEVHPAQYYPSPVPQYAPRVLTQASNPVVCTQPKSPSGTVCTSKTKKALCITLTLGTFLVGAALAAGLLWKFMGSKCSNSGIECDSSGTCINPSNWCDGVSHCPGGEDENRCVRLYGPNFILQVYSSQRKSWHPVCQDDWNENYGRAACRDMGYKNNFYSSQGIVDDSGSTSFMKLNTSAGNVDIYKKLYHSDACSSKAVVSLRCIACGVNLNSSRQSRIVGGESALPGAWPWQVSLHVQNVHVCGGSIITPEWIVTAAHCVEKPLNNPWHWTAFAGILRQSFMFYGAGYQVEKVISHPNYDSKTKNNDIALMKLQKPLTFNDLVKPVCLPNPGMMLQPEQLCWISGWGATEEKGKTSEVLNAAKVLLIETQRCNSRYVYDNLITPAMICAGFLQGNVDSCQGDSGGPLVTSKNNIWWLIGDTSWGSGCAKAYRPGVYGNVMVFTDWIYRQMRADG

[1] = target: T1, Recombinant human matriptase (Homo sapiens, UniProt Q9Y5Y6); experiment: Protease selectivity, Ki on recombinant protease; format: biochemical; conditions: mean ± s.d., max concentration 10 µM; read-out: Ki Matriptase
T1 construct: made in house
T1 sequence (Q9Y5Y6 1-855): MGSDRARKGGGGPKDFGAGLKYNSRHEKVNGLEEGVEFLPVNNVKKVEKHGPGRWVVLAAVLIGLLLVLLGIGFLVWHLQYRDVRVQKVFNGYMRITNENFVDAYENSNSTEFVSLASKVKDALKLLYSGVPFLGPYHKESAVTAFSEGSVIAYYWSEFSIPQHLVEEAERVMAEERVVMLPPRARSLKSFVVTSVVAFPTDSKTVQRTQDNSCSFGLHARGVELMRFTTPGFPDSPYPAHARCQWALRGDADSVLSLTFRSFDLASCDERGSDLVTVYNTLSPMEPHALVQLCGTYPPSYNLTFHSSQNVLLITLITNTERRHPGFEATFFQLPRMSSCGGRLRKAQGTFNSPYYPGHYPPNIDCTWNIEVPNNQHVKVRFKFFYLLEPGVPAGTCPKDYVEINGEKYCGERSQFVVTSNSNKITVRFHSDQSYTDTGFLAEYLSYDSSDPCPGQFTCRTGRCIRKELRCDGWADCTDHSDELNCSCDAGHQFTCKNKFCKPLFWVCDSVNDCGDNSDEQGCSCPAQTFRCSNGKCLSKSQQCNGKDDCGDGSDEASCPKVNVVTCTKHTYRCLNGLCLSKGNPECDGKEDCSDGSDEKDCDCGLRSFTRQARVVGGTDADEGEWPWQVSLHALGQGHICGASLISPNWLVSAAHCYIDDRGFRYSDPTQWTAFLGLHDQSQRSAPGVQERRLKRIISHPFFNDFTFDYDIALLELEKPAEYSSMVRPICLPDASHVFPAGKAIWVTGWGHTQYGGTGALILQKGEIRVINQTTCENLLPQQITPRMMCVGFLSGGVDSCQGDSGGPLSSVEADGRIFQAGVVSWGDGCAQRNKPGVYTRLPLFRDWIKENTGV

Recombinant human hepsin = target: T2, Recombinant human hepsin (Homo sapiens, UniProt P05981); experiment: Protease selectivity, Ki on recombinant protease; format: biochemical; conditions: mean ± s.d., max concentration 10 µM; read-out: Ki Hepsin
T2 construct: made in house
T2 sequence (P05981 whole entry): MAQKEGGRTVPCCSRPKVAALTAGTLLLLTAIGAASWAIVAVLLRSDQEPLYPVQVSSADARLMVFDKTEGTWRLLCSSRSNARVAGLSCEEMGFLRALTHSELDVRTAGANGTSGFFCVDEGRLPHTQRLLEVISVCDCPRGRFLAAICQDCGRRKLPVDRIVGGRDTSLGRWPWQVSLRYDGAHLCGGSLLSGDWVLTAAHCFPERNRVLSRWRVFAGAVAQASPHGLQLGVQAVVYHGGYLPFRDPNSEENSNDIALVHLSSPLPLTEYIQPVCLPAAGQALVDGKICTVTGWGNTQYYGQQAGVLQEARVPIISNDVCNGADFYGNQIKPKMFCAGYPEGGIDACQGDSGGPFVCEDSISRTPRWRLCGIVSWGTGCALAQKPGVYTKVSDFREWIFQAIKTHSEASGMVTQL

Recombinant human DESC1 = target: T3, Recombinant human DESC1 (Homo sapiens, UniProt Q9UL52); experiment: Protease selectivity, Ki on recombinant protease; format: biochemical; conditions: mean ± s.d., max concentration 10 µM; read-out: Ki DESC1
T3 construct: made in house
T3 sequence (Q9UL52 1-423): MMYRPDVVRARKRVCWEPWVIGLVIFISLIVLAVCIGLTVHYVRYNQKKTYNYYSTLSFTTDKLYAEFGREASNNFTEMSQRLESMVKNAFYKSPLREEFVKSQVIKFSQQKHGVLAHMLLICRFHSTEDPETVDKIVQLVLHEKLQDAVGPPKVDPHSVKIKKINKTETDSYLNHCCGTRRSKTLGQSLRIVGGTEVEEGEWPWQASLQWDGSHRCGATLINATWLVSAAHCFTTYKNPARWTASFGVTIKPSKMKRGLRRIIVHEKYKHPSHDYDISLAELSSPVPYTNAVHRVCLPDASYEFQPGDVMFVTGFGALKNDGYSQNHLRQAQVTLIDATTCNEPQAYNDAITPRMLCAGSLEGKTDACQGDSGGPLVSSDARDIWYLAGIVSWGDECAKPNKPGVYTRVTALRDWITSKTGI

human thrombin = target: T4, human thrombin (Homo sapiens, UniProt P00734); experiment: Protease selectivity, Ki on protease; format: biochemical; conditions: mean ± s.d., max concentration 10 µM; read-out: Ki Thrombin
T4 construct: purchased MilliporeSigma

Recombinant human furin = target: T5, Recombinant human furin (Homo sapiens, UniProt P09958); experiment: Protease selectivity, Ki on recombinant protease; format: biochemical; conditions: mean ± s.d., max concentration 10 µM; read-out: Ki Furin
T5 construct: purchased Bio-Techne
T5 sequence (P09958 108-794): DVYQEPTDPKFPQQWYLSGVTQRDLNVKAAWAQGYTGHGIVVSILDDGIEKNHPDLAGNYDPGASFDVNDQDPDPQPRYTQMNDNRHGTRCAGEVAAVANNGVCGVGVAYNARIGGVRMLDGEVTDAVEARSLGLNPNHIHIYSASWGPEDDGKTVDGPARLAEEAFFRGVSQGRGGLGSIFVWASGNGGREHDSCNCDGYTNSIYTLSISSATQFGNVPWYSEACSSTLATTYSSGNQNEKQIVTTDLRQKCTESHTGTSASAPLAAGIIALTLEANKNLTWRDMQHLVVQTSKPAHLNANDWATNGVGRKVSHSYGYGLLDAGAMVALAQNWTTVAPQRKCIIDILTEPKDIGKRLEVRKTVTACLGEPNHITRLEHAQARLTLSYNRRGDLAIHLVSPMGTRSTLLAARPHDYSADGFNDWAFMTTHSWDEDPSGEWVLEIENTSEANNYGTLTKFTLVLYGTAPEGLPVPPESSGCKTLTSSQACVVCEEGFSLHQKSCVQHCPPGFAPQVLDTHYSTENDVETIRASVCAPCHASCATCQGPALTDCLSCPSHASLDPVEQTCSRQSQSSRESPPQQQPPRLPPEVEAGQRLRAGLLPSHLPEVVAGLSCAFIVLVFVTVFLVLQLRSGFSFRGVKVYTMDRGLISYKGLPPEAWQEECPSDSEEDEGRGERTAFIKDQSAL

human cathepsin L = target: T6, human cathepsin L (Homo sapiens, UniProt P07711); experiment: Protease selectivity, Ki on protease; format: biochemical; conditions: mean ± s.d., max concentration 10 µM; read-out: Ki Cathepsin L
T6 construct: purchased Bio-Techne
T6 sequence (P07711 114-333): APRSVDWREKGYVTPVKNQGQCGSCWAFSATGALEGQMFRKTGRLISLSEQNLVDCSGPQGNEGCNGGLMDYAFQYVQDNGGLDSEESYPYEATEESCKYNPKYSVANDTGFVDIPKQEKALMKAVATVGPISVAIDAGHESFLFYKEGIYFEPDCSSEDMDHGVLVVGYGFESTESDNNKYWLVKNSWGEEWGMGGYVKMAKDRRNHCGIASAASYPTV

[2] = system: SARS-CoV-2 lineage B strain (VIDO); experiment: microbe, parasite or virus in culture; format: cell-based; conditions: for Nucleocapsid / dsRNA: Figure 2a, two replicates; for Nucleocapsid: DMSO control about 91-94; for dsRNA: DMSO control about 93-95; for EC50 / inhibition at 0.1 µM: Severe acute respiratory syndrome coronavirus 2, Calu-3; for EC50: read-out: SARS-CoV-2 VIDO Nucleocapsid EC50 ± SE; for inhibition at 0.1 µM: read-out: inhibition of SARS-CoV-2 infection
[3] = Cytotoxicity CC50 in Calu-3 lung epithelial cells; format: cell-based, human; conditions: human, Calu-3 cells; for viability at 24 h, 3000 µM: Log [inhibitor] -2.52; for viability at 24 h, 1000 µM: Log [inhibitor] -3.00; for viability at 24 h, 300 µM: Log [inhibitor] -3.52; for viability at 24 h, 100 µM: Log [inhibitor] -4.00; for viability at 24 h, 30 µM: Log [inhibitor] -4.52; for viability at 24 h, 10 µM: Log [inhibitor] -5.00; for viability at 24 h, 3 µM: Log [inhibitor] -5.52; for viability at 24 h, 0.3 µM: Log [inhibitor] -6.52; for viability at 24 h, 0.03 µM: Log [inhibitor] -7.52; for viability at 24 h, 0.003 µM: Log [inhibitor] -8.52; for CC50 at 24 h: unit not given for CC50, read-out: CC50
Calu-3 cells = experiment: Cytotoxicity CC50 in Calu-3 lung epithelial cells; format: cell-based, human; conditions: single replicates
[4] = TMPRSS2, mean of independent experiments, Figure 1C, read-out: IC50 Mean
[5] = Vero E6 cells expressing human TMPRSS2, 24 h with fluorogenic substrate, read-out: TMPRSS2 IC50 ± SD
[6] = read-out: % of Viability, Average (n=2)
[7] = single replicates, read-out: % of Viability

SMILES: N=C(N)NCCCCC(=O)NC(CCC(N)=O)C(=O)NC(Cc1ccccc1)C(=O)NC(CCCNC(=N)N)C(=O)c1nc2ccccc2s1 (stereo not drawn) [Compound N-0130, (H)RQFR-kbt]
- TMPRSS2 relative activity (human TMPRSS2; 1.00E-06 M): 5.317 and 4.665
- TMPRSS2 relative activity (human TMPRSS2; 1.00E-07 M): 0.9344 and 1.227
- TMPRSS2 relative activity (human TMPRSS2; 2.00E-08 M): 26.2346 and 28.2385
- TMPRSS2 relative activity (human TMPRSS2; 3.20E-11 M): 95.7258 and 93.264
- TMPRSS2 relative activity (human TMPRSS2; 4.00E-09 M): 48.3901 and 50.7993
- TMPRSS2 relative activity (human TMPRSS2; 8.00E-10 M): 84.4379 and 85.0608
- TMPRSS2 activity (%) (human TMPRSS2; Figure 1B, single experiments N1-N3): 32.9396% and 22.7789% and 30.45%
- IC50 (human TMPRSS2; [4]): 0.0031 µM
- IC50 (human TMPRSS2; TMPRSS2, single experiments, Figure 1C, read-out: IC50 determined from independant experiments): 0.00174 µM and 0.00287 µM and 0.0047 µM
- inhibition at 0.01 µM (human TMPRSS2): 72%
- IC50 (human TMPRSS2; [5]): 0.0031 ± 0.0015 µM
- Ki [1]: 0.00013 ± 3e-05 µM
- Ki (Recombinant human hepsin): 0.00038 ± 0.00019 µM
- Ki (Recombinant human DESC1): 0.028 ± 0.01 µM
- Ki (human thrombin): 8.23 ± 1.55 µM
- Ki (Recombinant human furin): > 10 µM
- Ki (human cathepsin L): > 10 µM
- Nucleocapsid [2]: 2.419 and 11.8709
- dsRNA [2]: 3.583 and 18.343
- EC50 [2]: 0.0301 ± 0.0301 µM
- inhibition at 0.1 µM [2]: > 93%
- Figure 2b dose-response, Mean ([2]; log [C] (nM) 0.20412): 93.6494
- Figure 2b dose-response, Mean ([2]; log [C] (nM) 0.90309): 82.4234
- Figure 2b dose-response, Mean ([2]; log [C] (nM) 1.60206): 39.6362
- Figure 2b dose-response, Mean ([2]; log [C] (nM) 2.30103): 5.2153
- Figure 2b dose-response, Mean ([2]; log [C] (nM) 3): 0.8023
- Figure 2b dose-response, Mean ([2]; log [C] (nM) -0.49485): 100
- Figure 2b dose-response, Mean ([2]; log [C] (nM) -1.19382): 97.2147
- viability at 24 h, 3000 µM [3, 6]: 44.5%
- viability at 24 h, 3000 µM [3, 7]: 42%
- viability at 24 h, 1000 µM [3, 6]: 86.5%
- viability at 24 h, 1000 µM [3, 7]: 84%
- viability at 24 h, 300 µM [3, 6]: 90.5%
- viability at 24 h, 300 µM [3, 7]: 90%
- viability at 24 h, 100 µM [3, 6]: 91%
- viability at 24 h, 100 µM [3, 7]: 88%
- viability at 24 h, 30 µM [3, 6]: 96.5%
- viability at 24 h, 30 µM [3, 7]: 98%
- viability at 24 h, 10 µM [3, 6]: 95%
- viability at 24 h, 10 µM [3, 7]: 98%
- viability at 24 h, 3 µM [3, 6]: 100%
- viability at 24 h, 3 µM [3, 7]: 99%
- viability at 24 h, 0.3 µM [3, 6]: 106%
- viability at 24 h, 0.3 µM [3, 7]: 103%
- viability at 24 h, 0.03 µM [3, 6]: 101%
- viability at 24 h, 0.03 µM [3, 7]: 99%
- viability at 24 h, 0.003 µM [3, 6]: 104%
- viability at 24 h, 0.003 µM [3, 7]: 101%
- CC50 at 24 h [3]: 2680 µM
- % of Viability (Calu-3 cells; Log [inhibitor] -2.52): 47%
- % of Viability (Calu-3 cells; Log [inhibitor] -3.00): 89%
- % of Viability (Calu-3 cells; Log [inhibitor] -4.00): 94%
- % of Viability (Calu-3 cells; Log [inhibitor] -5.00): 92%
- % of Viability (Calu-3 cells; Log [inhibitor] -6.52): 108%
- % of Viability (Calu-3 cells; Log [inhibitor] -8.52): 107%

SMILES: N=C(N)NCCCCC(=O)N[C@@H](CCC(=O)O)C(=O)N[C@@H](Cc1ccccc1)C(=O)N[C@@H](CCCNC(=N)N)C(=O)c1nc2ccccc2s1 [Compound N-0438, (H)REFR-kbt]
- TMPRSS2 relative activity (human TMPRSS2; 1.60E-10 M): 86.6686 and 86.7823
- TMPRSS2 relative activity (human TMPRSS2; 2.00E-08 M): 4.266 and 6.221
- TMPRSS2 relative activity (human TMPRSS2; 3.20E-11 M): 102.504 and 103.881
- TMPRSS2 relative activity (human TMPRSS2; 4.00E-09 M): 35.2539 and 37.178
- TMPRSS2 relative activity (human TMPRSS2; 8.00E-10 M): 70.1907 and 73.6892
- IC50 (human TMPRSS2; [4]): 0.00517 µM
- inhibition at 0.01 µM (human TMPRSS2): 84%
- IC50 (human TMPRSS2; [5]): 0.0052 ± 0.0054 µM
- Ki [1]: 0.00111 ± 9e-05 µM
- Ki (Recombinant human hepsin): 0.00052 ± 7e-05 µM
- Ki (Recombinant human DESC1): 0.031 ± 0.003 µM
- Ki (human thrombin): > 10 µM
- Ki (Recombinant human furin): > 10 µM
- Ki (human cathepsin L): > 10 µM
- Nucleocapsid [2]: 4.61 and 18.8861
- dsRNA [2]: 14.5614 and 27.1131
- EC50 [2]: 0.0357 ± 0.0245 µM
- inhibition at 0.1 µM [2]: > 88%
- Figure 2b dose-response, Mean ([2]; log [C] (nM) 0.20412): 87.8313
- Figure 2b dose-response, Mean ([2]; log [C] (nM) 0.90309): 62.8653
- Figure 2b dose-response, Mean ([2]; log [C] (nM) 1.60206): 44.3084
- Figure 2b dose-response, Mean ([2]; log [C] (nM) 2.30103): 28.0955
- Figure 2b dose-response, Mean ([2]; log [C] (nM) 3): 3.627
- Figure 2b dose-response, Mean ([2]; log [C] (nM) -0.49485): 89.252
- Figure 2b dose-response, Mean ([2]; log [C] (nM) -1.19382): 94.5427
- viability at 24 h, 3000 µM [3, 6]: 25.5%
- viability at 24 h, 300 µM [3, 6]: 87.5%
- viability at 24 h, 300 µM [3, 7]: 86%
- viability at 24 h, 100 µM [3, 6]: 86%
- viability at 24 h, 100 µM [3, 7]: 81%
- viability at 24 h, 30 µM [3, 6]: 89%
- viability at 24 h, 30 µM [3, 7]: 89%
- viability at 24 h, 10 µM [3, 6]: 89%
- viability at 24 h, 10 µM [3, 7]: 93%
- viability at 24 h, 3 µM [3, 6]: 99%
- viability at 24 h, 3 µM [3, 7]: 101%
- viability at 24 h, 0.3 µM [3, 6]: 108%
- viability at 24 h, 0.3 µM [3, 7]: 111%
- viability at 24 h, 0.03 µM [3, 6]: 103%
- viability at 24 h, 0.03 µM [3, 7]: 107%
- viability at 24 h, 0.003 µM [3, 6]: 104%
- viability at 24 h, 0.003 µM [3, 7]: 109%
- CC50 at 24 h [3]: 980 µM
- % of Viability (Calu-3 cells; Log [inhibitor] -2.52): 12% and 39%
- % of Viability (Calu-3 cells; Log [inhibitor] -4.00): 91%
- % of Viability (Calu-3 cells; Log [inhibitor] -5.00): 85%
- % of Viability (Calu-3 cells; Log [inhibitor] -5.52): 97%
